Assay [1] has as its target T1, BTK enzyme (recombinant full-length BTK, hBTK) (Homo sapiens, UniProt Q06187).
T1 construct: recombinant protein from baculovirus-transfected Sf9 cells: full-length BTK, 6HIS-tag cleaved; 6HIS (cleaved yes); made in house; host or cells: baculovirus-transfected Sf9 cells
Briefly: BTK enzyme activity assay, LANCE TR-FRET. Type of assay: biochemical. The conditions noted are these: 50 pM hBTK, 2 μM biotin-A5-peptide, 25 μM ATP; 60 min compound & enzyme incubation; read-out: IC50 BTK activity value. On the technique in general: Time-resolved FRET reads energy transfer from a long-lived donor to a nearby acceptor.

For another assay, the system named is HeLa cells. Briefly: [3H]Adenosine uptake functional cellular assay. Type of assay: cell-based. The settings on record: Homo sapiens, HeLa, accumulation of [3H]adenosine into HeLa cells; compound range 10 μM to […]; read-out: Adenosine uptake inhibition IC50. The essentials:
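Inhibition of adenosine uptake was measured in HeLa cells (ATCC CCL-2) by following accumulation of tritiated adenosine. Cells were kept overnight at 37° C. with 5% (v/v) CO2, then switched to 40 μL HBSS plus 5% (v/v) FBS. 20 μL of 500 nM [3H]adenosine was added, and uptake was counted on a Topcount NXT reader.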

T1 sequence (Q06187 whole entry): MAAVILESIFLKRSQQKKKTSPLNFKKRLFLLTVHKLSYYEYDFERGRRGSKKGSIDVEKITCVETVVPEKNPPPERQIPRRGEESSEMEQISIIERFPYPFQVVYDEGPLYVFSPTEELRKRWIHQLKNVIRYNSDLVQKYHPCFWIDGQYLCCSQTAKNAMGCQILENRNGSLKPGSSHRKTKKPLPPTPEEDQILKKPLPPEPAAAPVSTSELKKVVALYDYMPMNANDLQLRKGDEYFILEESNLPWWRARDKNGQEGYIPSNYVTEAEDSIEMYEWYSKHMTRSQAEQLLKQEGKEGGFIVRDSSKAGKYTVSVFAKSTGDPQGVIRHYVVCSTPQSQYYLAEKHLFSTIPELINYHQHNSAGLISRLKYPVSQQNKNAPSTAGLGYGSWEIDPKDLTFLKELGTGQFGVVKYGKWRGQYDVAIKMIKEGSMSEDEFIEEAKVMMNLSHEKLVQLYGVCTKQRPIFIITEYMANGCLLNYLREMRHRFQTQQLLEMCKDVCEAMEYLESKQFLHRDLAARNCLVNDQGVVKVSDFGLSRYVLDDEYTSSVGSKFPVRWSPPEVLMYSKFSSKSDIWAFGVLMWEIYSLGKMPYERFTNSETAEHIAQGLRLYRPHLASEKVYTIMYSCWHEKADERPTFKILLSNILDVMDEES

What is called IC50 is the midpoint of a concentration-inhibition curve. Take `CC(=O)Oc1cc(C(=O)Nc2cc(C(F)(F)F)ccn2)ccc1-c1nc([C@@H]2CC[C@H]3CCC(=O)N3C2)n2ccnc(N)c12` [Example 155, 2-{8-amino-3-[(6R,8aS)-3-oxooctahydroindolizin-6-yl]imidazo[1,5-a]pyrazin-1-yl}-5-{[4-(trifluoromethyl)pyridin-2-yl]carbamoyl}phenyl acetate]: the half-maximal inhibitory concentration (IC50) in assay [1] came to 0.0039 µM; with HeLa cells, 1.53 µM.
Taken in the same sequence, the figures for `CC(=O)Nc1nccn2c([C@@H]3CC[C@H]4CCC(=O)N4C3)nc(-c3ccc(C(=O)Nc4cc(C(F)(F)F)ccn4)cc3O)c12` [Example 156, 4-{8-(acetylamino)-3-[(6R,8aS)-3-oxooctahydroindolizin-6-yl]imidazo[1,5-a]pyrazin-1-yl}-3-hydroxy-N-[4-(trifluoromethyl)pyridin-2-yl]benzamide] were 0.0044 µM and 1.75 µM.
Taken in the same sequence, the figures for `COCCN(C(=O)c1ccc(-c2nc([C@@H]3CC[C@H]4CCC(=O)N4C3)n3ccnc(N)c23)c(O)c1)c1cc(C(F)(F)F)ccn1` [Example 157, 4-{8-amino-3-[(6R,8aS)-3-oxooctahydroindolizin-6-yl]imidazo[1,5-a]pyrazin-1-yl}-3-hydroxy-N-(2-methoxyethyl)-N-[4-(trifluoromethyl)pyridin-2-yl]benzamide] were 0.292 µM and 1.78 µM.
As to `CCOc1cc(C(=O)Nc2ncc(C)s2)ccc1-c1nc([C@@H]2CC[C@H]3CCC(=O)N3C2)n2c(Cl)cnc(N)c12` [Example 158, 4-{8-amino-5-chloro-3-[(6R,8aS)-3-oxooctahydroindolizin-6-yl]imidazo[1,5-a]pyrazin-1-yl}-3-ethoxy-N-(5-methyl-1,3-thiazol-2-yl)benzamide], the IC50 in assay [1] turned out to be 0.00045 µM; in the assay on HeLa cells, 2.07 µM.
On the same counts, the results for `CCOc1cc(C(=O)Nc2ncc(C)s2)ccc1-c1nc([C@@H]2CC[C@H]3CCC(=O)N3C2)n2ccnc(N)c12` [Example 159, 4-{8-amino-3-[(6R,8aS)-3-oxooctahydroindolizin-6-yl]imidazo[1,5-a]pyrazin-1-yl}-3-ethoxy-N-(5-methyl-1,3-thiazol-2-yl)benzamide] are 0.00063 µM and 1.22 µM.
On the same counts, the results for `Nc1ncc(F)n2c([C@@H]3CC[C@H]4CCC(=O)N4C3)nc(-c3ccc(C(=O)Nc4cc(C(F)(F)F)ccn4)cc3)c12` [Example 160, 4-{8-amino-5-fluoro-3-[(6R,8aS)-3-oxooctahydroindolizin-6-yl]imidazo[1,5-a]pyrazin-1-yl}-N-[4-(trifluoromethyl)pyridin-2-yl]benzamide] are 0.00028 µM and 0.29 µM.
`CCOc1cc(C(=O)Nc2cc(C(F)(F)F)ccn2)ccc1-c1nc([C@@H]2CC[C@H]3CCC(=O)N3C2)n2c(F)cnc(N)c12` [Example 161, 4-{8-amino-5-fluoro-3-[(6R,8aS)-3-oxooctahydroindolizin-6-yl]imidazo[1,5-a]pyrazin-1-yl}-3-ethoxy-N-[4-(trifluoromethyl)pyridin-2-yl]benzamide]: the IC50 in assay [1] amounted to 0.00099 µM; with HeLa cells it was 1.54 µM.
On the same counts, the results for `COc1cc(C(=O)Nc2cc(C(F)(F)F)ccn2)ccc1-c1nc([C@@H]2CC[C@H]3CCC(=O)N3C2)n2c(F)cnc(N)c12` [Example 162, 4-{8-amino-5-fluoro-3-[(6R,8aS)-3-oxooctahydroindolizin-6-yl]imidazo[1,5-a]pyrazin-1-yl}-3-methoxy-N-[4-(trifluoromethyl)pyridin-2-yl]benzamide] are 0.0013 µM and 1.54 µM.
On the same counts, the results for `CCOc1cc(C(=O)Nc2cc(C(F)(F)F)n(C)n2)ccc1-c1nc([C@@H]2CC[C@H]3CCC(=O)N3C2)n2c(F)cnc(N)c12` [Example 163, 4-{8-amino-5-fluoro-3-[(6R,8aS)-3-oxooctahydroindolizin-6-yl]imidazo[1,5-a]pyrazin-1-yl}-3-ethoxy-N-[1-methyl-5-(trifluoromethyl)-1H-pyrazol-3-yl]benzamide] are 0.0031 µM and 2.41 µM.
As to `CCOc1cc(C(=O)Nc2ncc(C)s2)ccc1-c1nc([C@@H]2CC[C@H]3CCC(=O)N3C2)n2c(F)cnc(N)c12` [Example 164, 4-{8-amino-5-fluoro-3-[(6R,8aS)-3-oxooctahydroindolizin-6-yl]imidazo[1,5-a]pyrazin-1-yl}-3-ethoxy-N-(5-methyl-1,3-thiazol-2-yl)benzamide], the 50% inhibitory concentration (IC50) is 0.0019 µM in assay [1] and 0.817 µM in the assay with HeLa cells.
On the same counts, the results for `Nc1ncc(F)n2c([C@@H]3CC[C@H]4CCC(=O)N4C3)nc(-c3ccc(C(=O)Nc4cc(C(F)(F)F)ccn4)cc3O)c12` [Example 165, 4-{8-amino-5-fluoro-3-[(6R,8aS)-3-oxooctahydroindolizin-6-yl]imidazo[1,5-a]pyrazin-1-yl}-3-hydroxy-N-[4-(trifluoromethyl)pyridin-2-yl]benzamide] are 0.0023 µM and 1.54 µM.
Taken in the same sequence, the figures for `Nc1ncc(F)n2c([C@@H]3CC[C@H]4CCC(=O)N4C3)nc(-c3ccc(C(=O)Nc4cc(C(F)(F)F)ccn4)cc3F)c12` [Example 166, 4-{8-amino-5-fluoro-3-[(6R,8aS)-3-oxooctahydroindolizin-6-yl]imidazo[1,5-a]pyrazin-1-yl}-3-fluoro-N-[4-(trifluoromethyl)pyridin-2-yl]benzamide] were 0.00034 µM and 0.296 µM.
Taken in the same sequence, the figures for `Nc1ncc(F)n2c([C@@H]3CC[C@H]4CCC(=O)N4C3)nc(-c3ccc(C(=O)Nc4cc(C5CC5)ccn4)cc3F)c12` [Example 167, 4-{8-amino-5-fluoro-3-[(6R,8aS)-3-oxooctahydroindolizin-6-yl]imidazo[1,5-a]pyrazin-1-yl}-N-(4-cyclopropylpyridin-2-yl)-3-fluorobenzamide] were 0.0013 µM and 0.318 µM.
`Nc1ncc(F)n2c([C@@H]3CC[C@H]4CCC(=O)N4C3)nc(-c3ccc(C(=O)Nc4cc(C5CC5)ccn4)cc3)c12` [Example 168, 4-{8-amino-5-fluoro-3-[(6R,8aS)-3-oxooctahydroindolizin-6-yl]imidazo[1,5-a]pyrazin-1-yl}-N-(4-cyclopropylpyridin-2-yl)benzamide]: the figures for the concentration for half-maximal inhibition (IC50) (in assay [1]; with HeLa cells) were 0.0015 µM and 0.285 µM, respectively.
Taken in the same sequence, the figures for `CCOc1cc(C(=O)Nc2cc(C(F)(F)F)ccn2)c(F)cc1-c1nc([C@@H]2CC[C@H]3CCC(=O)N3C2)n2c(F)cnc(N)c12` [Example 169, 4-{8-amino-5-fluoro-3-[(6R,8aS)-3-oxooctahydroindolizin-6-yl]imidazo[1,5-a]pyrazin-1-yl}-5-ethoxy-2-fluoro-N-[4-(trifluoromethyl)pyridin-2-yl]benzamide] were 0.0037 µM and 2.95 µM.
On the same counts, the results for `Nc1nccn2c([C@@H]3CC[C@H]4CCC(=O)N4C3)nc(-c3ccc(C(=O)Nc4cc(C(F)(F)F)[nH]n4)cc3)c12` [Example 170, 4-(8-amino-3-((6R,8aS)-3-oxooctahydroindolizin-6-yl)imidazo[1,5-a]pyrazin-1-yl)-N-(5-(trifluoromethyl)-1H-pyrazol-3-yl)benzamide] are 0.0369 µM and 6.75 µM.
On the same counts, the results for `Cc1cc(NC(=O)c2ccc(-c3nc([C@@H]4CC[C@H]5CCC(=O)N5C4)n4ccnc(N)c34)cc2)nn1C` [Example 175, 4-{8-amino-3-[(6R,8aS)-3-oxooctahydroindolizin-6-yl]imidazo[1,5-a]pyrazin-1-yl}-N-(1,5-dimethyl-1H-pyrazol-3-yl)benzamide] are 0.0065 µM and 0.725 µM.
Consider `Cc1nsc(NC(=O)c2ccc(-c3nc([C@@H]4CC[C@H]5CCC(=O)N5C4)n4ccnc(N)c34)cc2)n1` [Example 176, 4-{8-amino-3-[(6R,8aS)-3-oxooctahydroindolizin-6-yl]imidazo[1,5-a]pyrazin-1-yl}-N-(3-methyl-1,2,4-thiadiazol-5-yl)benzamide], for which the values for the IC50 (in assay [1]; in the assay with HeLa cells) were 0.0149 µM and 7.81 µM, respectively.
As for `Nc1nccn2c([C@@H]3CC[C@H]4CCC(=O)N4C3)nc(-c3ccc(C(=O)Nc4nc(C(F)(F)F)c[nH]4)cc3)c12` [Example 177, 4-{8-amino-3-[(6R,8aS)-3-oxooctahydroindolizin-6-yl]imidazo[1,5-a]pyrazin-1-yl}-N-[4-(trifluoromethyl)-1H-imidazol-2-yl]benzamide], the values for the concentration for half-maximal inhibition (IC50) (in assay [1]; in the assay with HeLa cells) were 0.144 µM and 3.32 µM, respectively.
Taken in the same sequence, the figures for `CCc1nsc(NC(=O)c2ccc(-c3nc([C@@H]4CC[C@H]5CCC(=O)N5C4)n4ccnc(N)c34)cc2)n1` [Example 178, 4-{8-amino-3-[(6R,8aS)-3-oxooctahydroindolizin-6-yl]imidazo[1,5-a]pyrazin-1-yl}-N-(3-ethyl-1,2,4-thiadiazol-5-yl)benzamide] were 0.0276 µM and 5.49 µM.
On the same counts, the results for `CC(C)c1nsc(NC(=O)c2ccc(-c3nc([C@@H]4CC[C@H]5CCC(=O)N5C4)n4ccnc(N)c34)cc2)n1` [Example 179, 4-{8-amino-3-[(6R,8aS)-3-oxooctahydroindolizin-6-yl]imidazo[1,5-a]pyrazin-1-yl}-N-[3-(1-methylethyl)-1,2,4-thiadiazol-5-yl]benzamide] are 0.0689 µM and 2.37 µM.
As for `Nc1nccn2c([C@@H]3CC[C@H]4CCC(=O)N4C3)nc(-c3ccc(C(=O)Nc4cc(C(F)(F)F)n(C5CCCC5)n4)cc3)c12` [Example 180, 4-{8-amino-3-[(6R,8aS)-3-oxooctahydroindolizin-6-yl]imidazo[1,5-a]pyrazin-1-yl}-N-[1-cyclopentyl-5-(trifluoromethyl)-1H-pyrazol-3-yl]benzamide], the 50% inhibitory concentration (IC50) in assay [1] worked out at 0.285 µM; with HeLa cells, 0.23 µM.
